The text below walks through data of patent publication US5883098A, “Piperazine derivatives” (Fujisawa Pharmaceutical Co., Ltd., priority 1993, dated 1999).

The target of the assay is T1, h-NK1 receptors (Homo sapiens, UniProt P25103).
T1 construct: expressed in transfected cells; host or cells: CHO cells
As to the kind of experiment: ^125 I-BH-Substance P binding to h-NK1 receptors. The note with it: at the concentration of 0.1 μg/ml; CHO cell membranes expressing h-NK1 receptors; read-out: inhibition rate of ^125 I-BH-Substance P binding to h-NK1 receptors. As to the method:
^125 I-BH-Substance P Binding to h-NK1 Receptors Test Method
^125 I-BH-Substance P Binding to h-NK1 Receptors
(a) Crude CHO cell membrane preparation
CHO cells permanently expressing h-NK1 receptors were harvested and homogenized with a Dounce homogenizer at 4° C. in a buffer (0.25M sucrose, 25 mM Tris-HCl pH 7.4, 10 mM MgCl2, 1 mM EDTA, 5 μg/ml p-APMSF). The homogenate was centrifuged (500×g, 10 minutes), and the pellet was resuspended in the same buffer, homogenized, and centrifuged. The two supernatants were combined and centrifuged (100,000×g, 1 hour). The crude cell membranes thus isolated were resuspended in buffer (25 mM Tris-HCl pH 7.4, 10 mM MgCl2, 1 mM EDTA, 5 μg/ml p-APMSF) and stored at -80° C. until use.
(b) ^125 I-BH-Substance P binding to preparation membrane Cell membranes (6 μg/ml) were incubated with ^125 I-BH-Substance P (0.1 nM) with or without test compounds in 0.25 ml of Medium 2(50 mM Tris-HCl pH 7.4, 5 mM MnCl2, 20 μg/ml chymostatin, 40 μg/ml bacitracin, 4 μg/ml leupeptin, 5 μg/ml p-APMSF, 200 μg/ml BSA) at 22° C. for 90 minutes. At the end of the incubation period, the content was quickly filtered over a Wahtman GF/C glass filter (pretreated with 0.1% polyethylene imine for 3 hours prior to use) under aspiration. Each of the filters was then washed four times with 5 ml of buffer (50 mM Tris-HCl pH 7.4, 5 mM MnCl2). The radioactivity was counted by using Auto Gamma counter (Packerd RIASTAR 5420A). All data presented are specific binding defined as that displaceable by 3 μM unlabeled Substance P.

T1 sequence (P25103 whole entry): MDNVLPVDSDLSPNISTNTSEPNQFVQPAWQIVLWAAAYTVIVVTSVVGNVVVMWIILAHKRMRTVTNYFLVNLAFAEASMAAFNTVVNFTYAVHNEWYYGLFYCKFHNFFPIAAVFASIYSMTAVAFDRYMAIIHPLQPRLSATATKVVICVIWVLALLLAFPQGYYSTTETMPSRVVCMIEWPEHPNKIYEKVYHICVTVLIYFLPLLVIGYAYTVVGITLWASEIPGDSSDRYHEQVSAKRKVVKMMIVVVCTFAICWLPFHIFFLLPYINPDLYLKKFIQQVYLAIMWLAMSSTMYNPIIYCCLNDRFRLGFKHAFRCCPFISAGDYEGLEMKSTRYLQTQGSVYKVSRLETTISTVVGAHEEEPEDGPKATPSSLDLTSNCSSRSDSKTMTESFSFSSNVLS

On to `CN1CCN(NC(=O)CN2CCN(C(=O)c3cc(C(F)(F)F)cc(C(F)(F)F)c3)[C@H](Cc3c[nH]c4ccccc34)C2)CC1` [Example 77, (2R)-1-[3,5-bis(trifluoromethyl)benzoyl]-2-(1H-indol-3-ylmethyl)-4-[N-(4-methyl-1-piperazinyl)carbamoylmethyl]piperazine], for which the inhibition at 0.1 µg/mL is more than 90%.

What is called inhibition is the relative decrease from the control value, in per cent.
